Experimental data published in patent US5200309A, “Color photographic materials including magenta coupler, carbonamide compound and aniline or amine compound, and methods” (Eastman Kodak Company, priority 1991, dated 1993).

Assay: Potentiometric titration of dispersion pKa of couplers (two-phase aqueous dispersion)
Format: physicochemical
Text: Preferred two-equivalent magenta dye-forming couplers for the practice of this invention include those that have pKa values of less than 10.0 when dispersed together with a coupler solvent. Potentiometric titrations were used to measure pKa values for some of the preferred couplers of the invention as aqueous dispersions. In these two-phase mixtures, the term pKa denotes the aqueous buffer pH at which half of the coupler in the oil phase is ionized or ion paired. Table I lists dispersion pKa values measured with 0.50 M potassium counter ion.

[1] = coupler solvent S2, coupler:solvent weight ratio 1:2, 0.50 M potassium
[2] = coupler solvent C5, coupler:solvent weight ratio 1:1, 0.50 M potassium
[3] = coupler solvent S1, coupler:solvent weight ratio 1:1, 0.50 M potassium

Compound	pKa(0.5M K+) [1]	pKa(0.5M K+) [2]	pKa(0.5M K+) [3]	pKa(0.5M K+) (coupler solvent C1, coupler:solvent weight ratio 1:2, 0.50 M potassium)
CCCCCCCCCCCCCC(=O)Nc1ccc(Cl)c(NC2=NN(c3c(Cl)cc(Cl)cc3Cl)C(=O)C2Sc2ccccc2NC(=O)C(CC)Oc2ccc(C(C)(C)CC)cc2C(C)(C)CC)c1 (stereo not drawn) [Coupler M3]	–	8.2	7.9	–
CCCCCCCCCCCCNS(=O)(=O)c1ccc(NC2=NN(c3c(Cl)cc(Cl)cc3Cl)C(=O)C2Sc2ccccc2NC(=O)C(CC)Oc2ccc(C(C)(C)CC)cc2C(C)(C)CC)c(Cl)c1 (stereo not drawn) [Coupler M4]	–	8.0	7.6	–
CCCCCCCCCCCCNS(=O)(=O)c1ccc(NC2=NN(c3c(Cl)cc(Cl)cc3Cl)C(=O)C2Sc2ccccc2NC(=O)CCCCCCCCCCC)c(Cl)c1 (stereo not drawn) [Coupler M8]	7.9	–	–	–

Next, values leading:

pKa(0.5M K+) [1]	pKa(0.5M K+) [2]	pKa(0.5M K+) [3]	pKa(0.5M K+) (coupler solvent C1, coupler:solvent weight ratio 1:2, 0.50 M potassium)	Compound
8.5	–	–	–	CCCCCCCCCCCCNS(=O)(=O)c1ccc(NC2=NN(c3c(Cl)cc(Cl)cc3Cl)C(=O)C2Sc2cc(C(C)(C)CC(C)(C)C)ccc2OCCCC)c(Cl)c1 (stereo not drawn) [Coupler M1]
7.5	–	–	–	CCCCCCCCCCCCCCCC(=O)Nc1ccc(Cl)c(NC2=NN(c3c(Cl)c(Cl)c(Cl)c(Cl)c3Cl)C(=O)C2Sc2ccccc2NC(=O)OCc2ccccc2)c1 (stereo not drawn) [Coupler M7]
8.4	–	–	8.9	CCCCCCCCCCCCCCCCCCNS(=O)(=O)c1ccc(Cl)c(NC2=NN(c3c(Cl)cc(Cl)cc3Cl)C(=O)C2Sc2cc(C(C)C)ccc2C(C)C)c1 (stereo not drawn) [Coupler M20]
